The results in this text go back to ChEMBL document CHEMBL5608189, “Design and synthesis of unique indole-benzosulfonamide oleanolic acid derivatives as potent antibacterial agents against MRSA” (Eur J Med Chem, 2024).

The structures appear in SMILES notation. In brackets after ≈: the same amount, converted by molar mass.

Assay type in all cases: functional
The subject of assay [1] is Staphylococcus aureus. Briefly: Antibacterial activity against Staphylococcus aureus ATCC 29213 measured after 24 hrs by susceptibility assay.
Assay [2] deals with Staphylococcus aureus. Briefly: Antibacterial activity against methicillin-resistant Staphylococcus aureus measured after 24 hrs by susceptibility assay.
The test system of assay [3] is Staphylococcus epidermidis. Briefly: Antibacterial activity against Staphylococcus epidermidis ATCC 12228 measured after 24 hrs by susceptibility assay.
Assay [4] relates to Staphylococcus aureus. Briefly: Antibacterial activity against Staphylococcus aureus ATCC 6538 measured after 24 hrs by susceptibility assay.

The MIC is the smallest concentration in the dilution series that meets the test's criterion for growth inhibition.

As for `CC1(C)CC[C@]2(C(=O)NS(=O)(=O)c3ccccc3)CC[C@]3(C)C(=CC[C@@H]4[C@@]5(C)CCC(=O)C(C)(C)[C@@H]5CC[C@]43C)[C@@H]2C1`, the MIC in assay [1] was greater than 256 µM; in assay [2], greater than 256 µM; in assay [3] it was greater than 256 µM; in assay [4], 128 µM (≈ 76 µg/mL).
As to `CC(=O)c1ccc2c3c([nH]c2c1)C(C)(C)[C@@H]1CC[C@]2(C)[C@H](CC=C4[C@@H]5CC(C)(C)CC[C@]5(C(=O)NS(=O)(=O)c5ccccc5)CC[C@]42C)[C@@]1(C)C3`, the MIC in assay [1] worked out at 2 µM (≈ 1.42 µg/mL); in assay [2], 2 µM (≈ 1.42 µg/mL); in assay [3], 2 µM (≈ 1.42 µg/mL); in assay [4], 1 µM (≈ 0.709 µg/mL).
In the case of `COc1ccc(S(=O)(=O)NC(=O)[C@]23CCC(C)(C)C[C@H]2C2=CC[C@@H]4[C@@]5(C)Cc6c([nH]c7ccc(C(=O)O)cc67)C(C)(C)[C@@H]5CC[C@@]4(C)[C@]2(C)CC3)cc1`, the MIC was determined as 2 µM (≈ 1.48 µg/mL) in assay [1], 2 µM (≈ 1.48 µg/mL) in assay [2], 2 µM (≈ 1.48 µg/mL) in assay [3] and 0.5 µM (≈ 0.371 µg/mL) in assay [4].
In the case of `CC1(C)CC[C@]2(C(=O)NS(=O)(=O)c3ccc(C(=O)O)cc3)CC[C@]3(C)C(=CC[C@@H]4[C@@]5(C)CCC(=O)C(C)(C)[C@@H]5CC[C@]43C)[C@@H]2C1`, the MIC in assay [1] was determined as 128 µM (≈ 81.6 µg/mL); in assay [2], 256 µM (≈ 163 µg/mL); in assay [3], 256 µM (≈ 163 µg/mL); in assay [4], 64 µM (≈ 40.8 µg/mL).
Take `Cc1ccc(S(=O)(=O)NC(=O)[C@]23CCC(C)(C)C[C@H]2C2=CC[C@@H]4[C@@]5(C)Cc6c([nH]c7cccc(C(=O)O)c67)C(C)(C)[C@@H]5CC[C@@]4(C)[C@]2(C)CC3)cc1`: the MIC in assay [1] came out at 4 µM (≈ 2.9 µg/mL); in assay [2], 4 µM (≈ 2.9 µg/mL); in assay [3], 4 µM (≈ 2.9 µg/mL); in assay [4] it was 1 µM (≈ 0.725 µg/mL).
`CN1CCN(C(=O)[C@]23CCC(C)(C)C[C@H]2C2=CC[C@@H]4[C@@]5(C)Cc6c([nH]c7cc(C(=O)O)ccc67)C(C)(C)[C@@H]5CC[C@@]4(C)[C@]2(C)CC3)CC1`: the MIC was greater than 256 µM in assay [1], 256 µM (≈ 167 µg/mL) in assay [2], 64 µM (≈ 41.9 µg/mL) in assay [3] and greater than 256 µM in assay [4].
Take `COc1ccc(S(=O)(=O)NC(=O)[C@]23CCC(C)(C)C[C@H]2C2=CC[C@@H]4[C@@]5(C)Cc6c([nH]c7cccc(C(=O)O)c67)C(C)(C)[C@@H]5CC[C@@]4(C)[C@]2(C)CC3)cc1`: the MIC in assay [1] amounted to 8 µM (≈ 5.93 µg/mL); in assay [2], 4 µM (≈ 2.96 µg/mL); in assay [3], 4 µM (≈ 2.96 µg/mL); in assay [4], 2 µM (≈ 1.48 µg/mL).
On to `CC1(C)CC[C@]2(C(=O)NS(=O)(=O)c3ccc(Cl)cc3)CC[C@]3(C)C(=CC[C@@H]4[C@@]5(C)Cc6c([nH]c7ccc(C(=O)O)cc67)C(C)(C)[C@@H]5CC[C@]43C)[C@@H]2C1`, for which the MIC came out at 1 µM (≈ 0.745 µg/mL) in assay [1], 1 µM (≈ 0.745 µg/mL) in assay [2], 1 µM (≈ 0.745 µg/mL) in assay [3] and 0.5 µM (≈ 0.373 µg/mL) in assay [4].
On to `CC(=O)c1cccc2[nH]c3c(c12)C[C@]1(C)[C@H]2CC=C4[C@@H]5CC(C)(C)CC[C@]5(C(=O)NS(=O)(=O)c5ccccc5)CC[C@@]4(C)[C@]2(C)CC[C@H]1C3(C)C`, for which the MIC in assay [1] is 4 µM (≈ 2.84 µg/mL); in assay [2], 4 µM (≈ 2.84 µg/mL); in assay [3], 2 µM (≈ 1.42 µg/mL); in assay [4], 4 µM (≈ 2.84 µg/mL).
`CN[C@H](CC(C)C)C(=O)N[C@H]1C(=O)N[C@@H](CC(N)=O)C(=O)N[C@H]2C(=O)N[C@H]3C(=O)N[C@H](C(=O)N[C@H](C(=O)O)c4cc(O)cc(O)c4-c4cc3ccc4O)[C@H](O)c3ccc(c(Cl)c3)Oc3cc2cc(c3O[C@@H]2O[C@H](CO)[C@@H](O)[C@H](O)[C@H]2O[C@H]2C[C@](C)(N)[C@H](O)[C@H](C)O2)Oc2ccc(cc2Cl)[C@H]1O` [VANCOMYCIN]: the MIC in assay [1], in assay [2], in assay [3] and in assay [4] was 0.5 µM (≈ 0.725 µg/mL) each time.
For the compound `CC1(C)CC[C@]2(C(=O)NS(=O)(=O)c3ccc(C(=O)O)cc3)CC[C@]3(C)C(=CC[C@@H]4[C@@]5(C)Cc6c([nH]c7ccc(C(=O)O)cc67)C(C)(C)[C@@H]5CC[C@]43C)[C@@H]2C1`, the MIC in assay [1], in assay [2], in assay [3] and in assay [4] was 64 µM (≈ 48.3 µg/mL) throughout.
In the case of `CN1CCN(C(=O)[C@]23CCC(C)(C)C[C@H]2C2=CC[C@@H]4[C@@]5(C)Cc6c([nH]c7cccc(C(=O)O)c67)C(C)(C)[C@@H]5CC[C@@]4(C)[C@]2(C)CC3)CC1`, the MIC in assay [1], in assay [2], in assay [3] and in assay [4] was greater than 256 µM throughout.
In the case of `CC1(C)CC[C@]2(C(=O)NS(=O)(=O)c3ccccc3)CC[C@]3(C)C(=CC[C@@H]4[C@@]5(C)Cc6c([nH]c7ccccc67)C(C)(C)[C@@H]5CC[C@]43C)[C@@H]2C1`, the MIC in assay [1], in assay [2], in assay [3] and in assay [4] was greater than 256 µM throughout.
Turning to `CC1(C)CC[C@]2(C(=O)NS(=O)(=O)c3ccc(Cl)cc3)CC[C@]3(C)C(=CC[C@@H]4[C@@]5(C)Cc6c([nH]c7cccc(C(=O)O)c67)C(C)(C)[C@@H]5CC[C@]43C)[C@@H]2C1`, the MIC in assay [1] turned out to be 2 µM (≈ 1.49 µg/mL); in assay [2], 2 µM (≈ 1.49 µg/mL); in assay [3], 2 µM (≈ 1.49 µg/mL); in assay [4], 1 µM (≈ 0.745 µg/mL).
Regarding `CC1(C)CC[C@]2(C(=O)NS(=O)(=O)c3ccc(C(=O)O)cc3)CC[C@]3(C)C(=CC[C@@H]4[C@@]5(C)Cc6c([nH]c7cc(C(=O)O)ccc67)C(C)(C)[C@@H]5CC[C@]43C)[C@@H]2C1`, the MIC in assay [1] stood at 2 µM (≈ 1.51 µg/mL); in assay [2] it was 2 µM (≈ 1.51 µg/mL); in assay [3], 4 µM (≈ 3.02 µg/mL); in assay [4], 1 µM (≈ 0.755 µg/mL).
As to `COc1ccc(S(=O)(=O)NC(=O)[C@]23CCC(C)(C)C[C@H]2C2=CC[C@@H]4[C@@]5(C)Cc6c([nH]c7c(C(=O)O)cccc67)C(C)(C)[C@@H]5CC[C@@]4(C)[C@]2(C)CC3)cc1`, the MIC in assay [1] was found to be 1 µM (≈ 0.741 µg/mL); in assay [2], 4 µM (≈ 2.96 µg/mL); in assay [3], 2 µM (≈ 1.48 µg/mL); in assay [4], 2 µM (≈ 1.48 µg/mL).
As for `CC1(C)CC[C@]2(C(=O)NS(=O)(=O)c3ccccc3)CC[C@]3(C)C(=CC[C@@H]4[C@@]5(C)Cc6c([nH]c7ccc(Br)cc67)C(C)(C)[C@@H]5CC[C@]43C)[C@@H]2C1`, the MIC in assay [1], in assay [2], in assay [3] and in assay [4] was greater than 256 µM in each case.
On to `CC1(C)CC[C@]2(C(=O)O)CC[C@]3(C)C(=CC[C@@H]4[C@@]5(C)CC[C@H](O)C(C)(C)[C@@H]5CC[C@]43C)[C@@H]2C1` [OLEANOLIC_ACID], for which the minimum inhibitory concentration (MIC) in assay [1], in assay [2], in assay [3] and in assay [4] was 32 µM (≈ 14.6 µg/mL) each time.
Consider `CC1(C)CC[C@]2(C(=O)NS(=O)(=O)c3ccc(Cl)cc3)CC[C@]3(C)C(=CC[C@@H]4[C@@]5(C)CCC(=O)C(C)(C)[C@@H]5CC[C@]43C)[C@@H]2C1`, for which the MIC in assay [1] came out at 8 µM (≈ 5.03 µg/mL); in assay [2], 32 µM (≈ 20.1 µg/mL); in assay [3], 4 µM (≈ 2.51 µg/mL); in assay [4], 4 µM (≈ 2.51 µg/mL).
On to `CN1CCN(C(=O)[C@]23CCC(C)(C)C[C@H]2C2=CC[C@@H]4[C@@]5(C)CCC(=O)C(C)(C)[C@@H]5CC[C@@]4(C)[C@]2(C)CC3)CC1`, for which the MIC in assay [1] is 32 µM (≈ 17.2 µg/mL); in assay [2] it was greater than 256 µM; in assay [3] it was 64 µM (≈ 34.4 µg/mL); in assay [4], 64 µM (≈ 34.4 µg/mL).
For `Cc1ccc(S(=O)(=O)NC(=O)[C@]23CCC(C)(C)C[C@H]2C2=CC[C@@H]4[C@@]5(C)Cc6c([nH]c7ccc(C(=O)O)cc67)C(C)(C)[C@@H]5CC[C@@]4(C)[C@]2(C)CC3)cc1`, the MIC in assay [1] was 1 µM (≈ 0.725 µg/mL); in assay [2], 2 µM (≈ 1.45 µg/mL); in assay [3], 1 µM (≈ 0.725 µg/mL); in assay [4], 1 µM (≈ 0.725 µg/mL).
For the compound `CC1(C)CC[C@]2(C(=O)NS(=O)(=O)c3ccc(Cl)cc3)CC[C@]3(C)C(=CC[C@@H]4[C@@]5(C)Cc6c([nH]c7cc(C(=O)O)ccc67)C(C)(C)[C@@H]5CC[C@]43C)[C@@H]2C1`, the MIC in assay [1] is 2 µM (≈ 1.49 µg/mL); in assay [2], 2 µM (≈ 1.49 µg/mL); in assay [3], 1 µM (≈ 0.745 µg/mL); in assay [4], 0.5 µM (≈ 0.373 µg/mL).
`CC1(C)CC[C@]2(C(=O)Nc3ccc(-c4ccccc4)cc3)CC[C@]3(C)C(=CC[C@@H]4[C@@]5(C)Cc6c([nH]c7cccc(C(=O)O)c67)C(C)(C)[C@@H]5CC[C@]43C)[C@@H]2C1`: the MIC in assay [1] worked out at 128 µM (≈ 92.5 µg/mL); in assay [2] it was 256 µM (≈ 185 µg/mL); in assay [3], 64 µM (≈ 46.3 µg/mL); in assay [4], 32 µM (≈ 23.1 µg/mL).
For `Cc1ccc(S(=O)(=O)NC(=O)[C@]23CCC(C)(C)C[C@H]2C2=CC[C@@H]4[C@@]5(C)Cc6c([nH]c7cc(C(=O)O)ccc67)C(C)(C)[C@@H]5CC[C@@]4(C)[C@]2(C)CC3)cc1` the same measures were 2 µM (≈ 1.45 µg/mL), 2 µM (≈ 1.45 µg/mL), 1 µM (≈ 0.725 µg/mL) and 1 µM (≈ 0.725 µg/mL).
For `CC1(C)CC[C@]2(C(=O)NS(=O)(=O)c3ccccc3)CC[C@]3(C)C(=CC[C@@H]4[C@@]5(C)Cc6c([nH]c7ccc(C(=O)O)cc67)C(C)(C)[C@@H]5CC[C@]43C)[C@@H]2C1` the same measures were 2 µM (≈ 1.42 µg/mL), 1 µM (≈ 0.711 µg/mL), 2 µM (≈ 1.42 µg/mL) and 1 µM (≈ 0.711 µg/mL).
For `CC1(C)CC[C@]2(C(=O)Nc3ccc(-c4ccccc4)cc3)CC[C@]3(C)C(=CC[C@@H]4[C@@]5(C)CCC(=O)C(C)(C)[C@@H]5CC[C@]43C)[C@@H]2C1`, in that order: greater than 256 µM, greater than 256 µM, greater than 256 µM and greater than 256 µM.
Consider `CC1(C)CC[C@]2(C(=O)NS(=O)(=O)c3ccc(C(=O)O)cc3)CC[C@]3(C)C(=CC[C@@H]4[C@@]5(C)Cc6c([nH]c7cccc(C(=O)O)c67)C(C)(C)[C@@H]5CC[C@]43C)[C@@H]2C1`, for which the minimum inhibitory concentration (MIC) turned out to be 128 µM (≈ 96.6 µg/mL) in assay [1], 256 µM (≈ 193 µg/mL) in assay [2], 256 µM (≈ 193 µg/mL) in assay [3] and 64 µM (≈ 48.3 µg/mL) in assay [4].
Regarding `COc1ccc(S(=O)(=O)NC(=O)[C@]23CCC(C)(C)C[C@H]2C2=CC[C@@H]4[C@@]5(C)Cc6c([nH]c7cc(C(=O)O)ccc67)C(C)(C)[C@@H]5CC[C@@]4(C)[C@]2(C)CC3)cc1`, the MIC in assay [1] is 4 µM (≈ 2.96 µg/mL); in assay [2], 4 µM (≈ 2.96 µg/mL); in assay [3] it was 2 µM (≈ 1.48 µg/mL); in assay [4], 1 µM (≈ 0.741 µg/mL).
